From article PMC7027461 (Clinical Pharmacology in Drug Development, 2020)
Several values for one entry are separate records, joined by “and”; a condition that tells them apart may be missing. Equal entries are not always repeated. Entries after “also recorded” stand apart in the source; their conditions may differ. Where two headings read alike, the source gives them in different places.

Key:
[1] = design: method as in ref 29 = [29]; 29 U.S. Food and Drug Administration . Application Number: 211349Orig1s000; Multi‐Discipline Review. https://www.accessdata.fda.gov/drugsatfda_docs/nda/2018/211349Orig1s000MultidisciplineR.pdf . Publi; conditions: single 40‐mg tablet; cited from earlier work
[2] = design: method as in PMID 19738123; conditions: uncoated tablet formulation; cited from earlier work
[3] = design: method as in ref 23 = [23]; 23 U.S. Food and Drug Administration . Application Number: 207997Orig1s000; 207997Orig2s000. Clinical Pharmacology and Biopharmaceutics Review(s). Available at: https://www.accessdata.fda.gov/drugsatf; conditions: single 50‐mg dose, cited from earlier work
[4] = design: method as in data on file, Daiichi Sankyo, Inc; conditions: ref data on file, Daiichi Sankyo, Inc; cited from earlier work
[5] = BCS classification; no reference given; cited from earlier work
cytochrome P450 3A = conditions: cited from earlier work
[6] = prior knowledge used for the study design and sampling duration; no reference given; cited from earlier work
[7] = design: method as in data on file, Daiichi Sankyo, Inc; conditions: subjects with AML; ref data on file, Daiichi Sankyo, Inc; cited from earlier work
[8] = Safety assessments (AEs, ECG/QTcF, vital signs, laboratory tests) in the food-effect study; format: in vivo, human
Experimental: All randomized subjects who received quizartinib were included in the safety analysis population. Safety assessments included physical examinations, vital signs, 12‐lead ECGs, adverse event (AE) evaluations, and clinical laboratory tests. Hematology, chemistry, serology, and urinalysis tests were performed by a local laboratory. AEs and laboratory tests were graded and summarized based on National Cancer Institute Common Terminology Criteria for Adverse Events version 4.03 and assessed for severity, relation to study drugs, and clinical significance.

CCc1nc(C(N)=O)c(Nc2ccc(N3CCC(N4CCN(C)CC4)CC3)c(OC)c2)nc1NC1CCOCC1 [gilteritinib]
decrease in AUC with a high‐fat meal vs the fasted state [1]: < 10%
decrease in Cmax with a high‐fat meal vs the fasted state [1]: 26%
delay in median tmax with a high‐fat meal [1]: 2 h

CC1(COc2ccc3c(c2)ncn3-c2ccc3cccc(N4CCC(N)CC4)c3n2)COC1 [crenolanib]
effect of food on interpatient variability of Cmax and AUCinf [2]: increased
effect of food on terminal half‐life [2]: no effects
effect of food on tmax [2]: delays

CO[C@@H]1[C@H](N(C)C(=O)c2ccccc2)C[C@H]2O[C@]1(C)n1c3ccccc3c3c4c(c5c6ccccc6n2c5c31)C(=O)NC4 [midostaurin]
increase in exposure with food ([3]; high‐fat meal (900–1000 calories, 50% fat content)): 1.6 fold
increase in exposure with food ([3]; standard meal (450 calories, 25% fat content)): 1.2 fold

CC(C)(C)c1cc(NC(=O)Nc2ccc(-c3cn4c(n3)sc3cc(OCCN5CCOCC5)ccc34)cc2)no1.Cl.Cl [quizartinib, N‐(5‐tert‐butyl‐isoxazol‐3‐yl)‐N′‐{4‐[7‐(2‐morpholin‐4‐yl‐ethoxy)imidazo[2,1‐b][1,3]benzothiazol‐2‐yl]phenyl}urea dihydrochloride]
Plasma protein binding [4]: > 99%
permeability [5]: low
solubility [5]: low
cytochrome P450 3A substrate status (cytochrome P450 3A): substrate
terminal elimination half‐life (t1/2) [6]: approximately 100 hours
effective half‐life [7]: 73 h
tolerability ([8]; 30‐mg single dose, fed and fasted healthy subjects): safe and well tolerated
subjects with maximum QTcF ≤450 milliseconds ([8]; all subjects (N = 64)): 64 (100%) n (%)
subjects with maximum change from baseline QTcF ≤30 milliseconds ([8]; all subjects (N = 64)): 98.4%
Number of TEAEs ([8]; fasted (n = 34)): 16
Number of treatment‐related AEs ([8]; fasted (n = 34)): 6
Subjects with a treatment‐related AE, n (%) ([8]; fasted (n = 34)): 4 (11.8%) n (%) and 4 (11.8) n (%)
Subjects with any TEAE by maximum severity: Mild, n (%) ([8]; fasted (n = 34)): 7 (20.6) n (%)
Subjects with any TEAE by maximum severity: Moderate, n (%) ([8]; fasted (n = 34)): 1 (2.9) n (%)
Subjects with any TEAE by maximum severity: Severe, n (%) ([8]; fasted (n = 34)): 1 (2.9) n (%)
Subjects with a TEAE, n (%) ([8]; fasted (n = 34), single 30-mg dose): 9 (26.5%) n (%) and 9 (26.5) n (%)
Number of TEAEs ([8]; fed (n = 30)): 7
Number of treatment‐related AEs ([8]; fed (n = 30)): 4
Subjects with a treatment‐related AE, n (%) ([8]; fed (n = 30)): 2 (6.7%) n (%) and 2 (6.7) n (%)
Subjects with any TEAE by maximum severity: Mild, n (%) ([8]; fed (n = 30)): 5 (16.7) n (%)
Subjects with any TEAE by maximum severity: Moderate, n (%) ([8]; fed (n = 30)): 0 n (%)
Subjects with any TEAE by maximum severity: Severe, n (%) ([8]; fed (n = 30)): 0 n (%)
Subjects with a TEAE, n (%) ([8]; fed (n = 30), single 30-mg dose): 5 (16.7%) n (%) and 5 (16.7) n (%)
Number of TEAEs ([8]; overall (N = 64)): 23
Number of treatment‐related AEs ([8]; overall (N = 64)): 10
Subjects with a treatment‐related AE, n (%) ([8]; overall (N = 64)): 6 (9.4%) n (%) and 6 (9.4) n (%)
Subjects with any TEAE by maximum severity: Mild, n (%) ([8]; overall (N = 64)): 12 (18.8) n (%)
Subjects with any TEAE by maximum severity: Moderate, n (%) ([8]; overall (N = 64)): 1 (1.6) n (%)
Subjects with any TEAE by maximum severity: Severe, n (%) ([8]; overall (N = 64)): 1 (1.6) n (%)
Subjects with a TEAE, n (%) ([8]; overall (N = 64), single 30-mg dose): 14 (21.9) n (%)
serious AEs or discontinuations due to AEs ([8]; single 30-mg dose, fed and fasted): no discontinuations due to adverse events occurred; also recorded: no serious AEs or discontinuations due to AEs
subjects with maximum change from baseline QTcF >30 milliseconds and ≤60 milliseconds ([8]; subject in the fasted group, percentage of N = 64): 1 (1.6%) n (%)
